Results taken from patent US11596643B2 (Sichuan Yingrui Pharmaceutical Technology Company, priority 2019, dated 2023).
Values after ≈ are worked out from the molar mass of the structure shown.

Key:
[1] = test system: HT-29 colon cancer cells; assay: In-vitro cytotoxicity test (CCK-8); format: cell-based
Description: (§1) In-vitro cytotoxicity test: HT-29 colon cancer cells, HepG-2 liver cancer cells, SMMC7721 liver cancer cells, SKOV3 ovarian cancer cells and MCF-7 breast cancer cells that were growing at the logarithmic phase were collected. The concentration of cell suspension was adjusted, and 100 uL of the cell suspension was added per well, then the cells were plated so that the density of cells to be tested was 4000 cells/well (the marginal wells being filled with a sterile PBS). Incubation was performed for 24 hours at 5% CO2 and 37° C. Then the medium was discarded, and pectin-adriamycin or adriamycin with a concentration gradient (containing 0.125, 0.25, 0.5, 1.0, 2.0, 4.0, 8.0 and 16.0 ug/mL of […]) was added, and three repetitions were set for each concentration. Then incubation was performed for 48 hours in an incubator at 5% CO2 and 37° C. 10 μl of a CCK-8 solution was added to each well to continue cultivation for 2 hours. The absorbance of each well at 450 nm was measured with an Enzyme-labelled meter, and IC50 values of pectin-adriamycin and adriamycin for various cancer cells were calculated.

[2] = test system: HepG-2 liver cancer cells; assay: In-vitro cytotoxicity test (CCK-8); format: cell-based
Description: as §1

[3] = test system: MCF-7 breast cancer cells; assay: In-vitro cytotoxicity test (CCK-8); format: cell-based
Description: as §1

[4] = test system: SKOV3 ovarian cancer cells; assay: In-vitro cytotoxicity test (CCK-8); format: cell-based
Description: as §1

[5] = test system: SMMC7721 liver cancer cells; assay: In-vitro cytotoxicity test (CCK-8); format: cell-based
Description: as §1

[6] = test system: 4T1 breast cancer; assay: In-vivo pharmacodynamic test, tumor-bearing mice; settings: 4T1 breast cancer tumor-bearing mice, 5 mg/kg adriamycin equivalent, intravenously injected 4 times
Description: (§2) In-vivo pharmacodynamic test: H22 liver cancer cells, 4T1 breast cancer cells, EMT6 breast cancer cells and HT-29 colon cancer cells that were growing at logarithmic phase were collected, and the concentration of the cell suspension was adjusted to 3×10^7 cells/mL. The cells were subcutaneously inoculated into right upper extremity of Balb/c mice or nude mice with 0.1 mL per mouse (containing about 3×10^6 cells). After the average tumor volume of the inoculated mice was reached 100 mm^3, the tumor-bearing mice were randomly divided into a negative control group (with 0.9% sodium chloride injection), an adriamycin control group (5 mg/kg) and a pectin-adriamycin experimental group (the equivalent of adriamycin being 5 mg/kg) respectively, 8 mice for each group, the above various drugs were intravenously injected for 4 times in total. The tumor volume change and the body weights were recorded, and the equation for volume calculation was as follows: volume=(length×width^2)/2.

[7] = test system: EMT-6 breast cancer; assay: In-vivo pharmacodynamic test, tumor-bearing mice; settings: EMT-6 breast cancer tumor-bearing mice, 5 mg/kg adriamycin equivalent, intravenously injected 4 times
Description: as §2

[8] = test system: H22 liver cancer; assay: In-vivo pharmacodynamic test, tumor-bearing mice; settings: 5 mg/kg adriamycin equivalent, intravenously injected 4 times
Description: as §2

[9] = test system: HT-29 colon cancer; assay: In-vivo pharmacodynamic test, tumor-bearing mice; settings: HT-29 colon cancer tumor-bearing mice, 5 mg/kg adriamycin equivalent, intravenously injected 4 times
Description: as §2

[10] = Body weight and death of tumor-bearing mice in the in-vivo pharmacodynamic test
Description: as §2

[11] = Solubility in water; format: physicochemical
[12] = test system: H22 liver cancer; assay: Comparison with the control compound, H22 liver cancer mice tumor model; format: in vivo
[13] = test system: 4T1 breast cancer; assay: Comparison with the control compound, 4T1 breast cancer mice tumor model; format: in vivo
[14] = tumor-bearing mice, 5 mg/kg adriamycin equivalent, i.v. 4 times
[15] = Example 16, conjugate intravenous, control intraperitoneal

## modified pectin-PEG8-VAPABC-adriamycin [pectin-adriamycin conjugate]
[1]; 48 hours incubation
  IC50, HT-29 colon cancer: 10.74 µg/mL
[2]; 48 hours incubation
  IC50, HepG-2 liver cancer: 4.11 µg/mL
[3]; 48 hours incubation
  IC50, MCF-7 breast cancer: 3.961 µg/mL
[4]; 48 hours incubation
  IC50, SKOV3 ovarian cancer: 5.488 µg/mL
[5]; 48 hours incubation
  IC50, SMMC7721 liver cancer: 2.31 µg/mL
[6]
  tumor growth inhibition rate: 78.1%
[7]
  tumor growth inhibition rate: 71.68%
[8]
  tumor growth inhibition rate: 72.98%
[9]
  curative effect: better than that of the adriamycin control
[10]; [14]
  body weights of the mice: not significantly decreased
  death of mice: no a mouse died
[11]
  Solubility in water: 10 mg/ml, solubility being
[12]; [15]
  tumor inhibition rate: 70.83%
[12]; same dosage, versus control compound (FIG. 8)
  inhibition time: longer
[13]; [15]
  tumor inhibition rate: 76.20%
[13]; same dosage, versus control compound (FIG. 9)
  inhibition time: longer

## COc1cccc2c1C(=O)c1c(O)c3c(c(O)c1C2=O)C[C@@](O)(C(=O)CO)C[C@@H]3O[C@H]1C[C@H](N)[C@H](O)[C@H](C)O1 [adriamycin, reference compound]
[1]; Homo sapiens, HT-29, 48 hours incubation
  IC50: 10.9 µg/mL (≈ 20.1 µM)
[2]; Homo sapiens, HepG2, 48 hours incubation
  IC50: 4.38 µg/mL (≈ 8.05 µM)
[3]; Homo sapiens, MCF7, 48 hours incubation
  IC50: 3.97 µg/mL (≈ 7.3 µM)
[4]; Homo sapiens, SK-OV-3, 48 hours incubation
  IC50: 5.7 µg/mL (≈ 10.5 µM)
[5]; Homo sapiens, SMMC-7721, 48 hours incubation
  IC50: 2.62 µg/mL (≈ 4.82 µM)
[6]
  tumor growth inhibition rate: 50.61%
[7]
  tumor growth inhibition rate: 56.95%
[8]
  tumor growth inhibition rate: 53.42%
[10]; mouse, in vivo, iv, 5 mg/kg
  body weight decrease: more than 15%
  body weights of the mice: significantly decreased
[10]; [14]
  death of mice: minormice died
